ChEMBL document CHEMBL1151131, “Bioactivity of the essential oil of Bupleurum fruticosum” (1989)
Calls of active or inactive are those of the source. No cut-off for these calls is given here.

Assays:
[1] = system: Rattus norvegicus; assay: Antiinflammatory activity against carrageenan-induced plantar edema in Wistar rat hind paw at 80 mg/kg, ip administered 1 hr before carrageenan challenge measured after 1 hrs; format: functional; conditions: route intraperitoneal
[2] = system: Rattus norvegicus; assay: Antiinflammatory activity against carrageenan-induced plantar edema in Wistar rat hind paw at 80 mg/kg, ip administered 1 hr before carrageenan challenge measured after 3 hrs; format: functional; conditions: route intraperitoneal
[3] = system: Rattus norvegicus; assay: Antiinflammatory activity against carrageenan-induced plantar edema in Wistar rat hind paw at 80 mg/kg, ip administered 1 hr before carrageenan challenge measured after 5 hrs; format: functional; conditions: route intraperitoneal
[4] = system: Rattus norvegicus; assay: Antiinflammatory activity against carrageenan-induced plantar edema in Wistar rat hind paw at 40 mg/kg, ip administered 1 hr before carrageenan challenge measured after 1 hrs; format: functional; conditions: route intraperitoneal
[5] = system: Rattus norvegicus; assay: Antiinflammatory activity against carrageenan-induced plantar edema in Wistar rat hind paw at 40 mg/kg, ip administered 1 hr before carrageenan challenge measured after 3 hrs; format: functional; conditions: route intraperitoneal
[6] = system: Rattus norvegicus; assay: Antiinflammatory activity against carrageenan-induced plantar edema in Wistar rat hind paw at 40 mg/kg, ip administered 1 hr before carrageenan challenge measured after 5 hrs; format: functional; conditions: route intraperitoneal
[7] = system: Rattus norvegicus; assay: Antiinflammatory activity against carrageenan-induced plantar edema in Wistar rat hind paw at 20 mg/kg, ip administered 1 hr before carrageenan challenge measured after 1 hrs; format: functional; conditions: route intraperitoneal
[8] = system: Rattus norvegicus; assay: Antiinflammatory activity against carrageenan-induced plantar edema in Wistar rat hind paw at 20 mg/kg, ip administered 1 hr before carrageenan challenge measured after 3 hrs; format: functional; conditions: route intraperitoneal
[9] = system: Rattus norvegicus; assay: Antiinflammatory activity against carrageenan-induced plantar edema in Wistar rat hind paw at 20 mg/kg, ip administered 1 hr before carrageenan challenge measured after 5 hrs; format: functional; conditions: route intraperitoneal
[10] = system: Rattus norvegicus; assay: Antiinflammatory activity against carrageenan-induced plantar edema in Wistar rat hind paw at 33 mg/kg, ip administered 1 hr before carrageenan challenge measured after 3 hrs; format: functional; conditions: route intraperitoneal
[11] = system: Rattus norvegicus; assay: Antiinflammatory activity against carrageenan-induced plantar edema in Wistar rat hind paw at 66 mg/kg, ip administered 1 hr before carrageenan challenge measured after 3 hrs; format: functional; conditions: route intraperitoneal
[12] = system: Uterus; assay: Antispasmodic activity against oxytocin-induced contraction in Wistar rat uterus at 1.1 ug/ml; format: functional, tissue-based
[13] = system: Uterus; assay: Antispasmodic activity against oxytocin-induced contraction in Wistar rat uterus at 2.2 ug/ml; format: functional, tissue-based

Row | SMILES | Activity [1] [%] | Activity [2] [%] | Activity [3] [%] | Activity [4] [%] | Activity [5] [%] | Activity [6] [%] | Activity [7] [%] | Activity [8] [%] | Activity [9] [%] | Activity [10] [%] | Activity [11] [%] | Activity [12] | Activity [13]
1 | CC1=CCC2CC1C2(C)C (stereo not drawn) [ALPHA-PINENE] | 19 | 26.2 | 13.2 | 20.4 | 21 | 14 | 5.6 | 8.9 | -1.6 |  |  |  | 
2 | C=C1CCC2CC1C2(C)C (stereo not drawn) [BETA-PINENE] | 8.7 | 32.2 | 31.9 | 27.5 | 19.2 | 14.9 | 20.5 | 15.1 | 16.7 |  |  |  | 
3 | CC1=CCC2C(C1)C2(C)C (configuration not stated) [CARENE] |  |  |  |  |  |  |  |  |  | 50.3 | 77 | Active | Active
